This note sets out measurements from EP3381906A1, “COMPOUNDS FOR USE AS HEPARANASE INHIBITORS” (Leadiant Biosciences SA, priority 2017, dated 2018).

The target of one assay is T1, heparanase (Homo sapiens, UniProt Q9Y251).
T1 construct: 100 µM fondaparinux, 2.5 nM heparanase and serial dilutions of test compounds
T1 sequence (Q9Y251 158-543 limits assumed): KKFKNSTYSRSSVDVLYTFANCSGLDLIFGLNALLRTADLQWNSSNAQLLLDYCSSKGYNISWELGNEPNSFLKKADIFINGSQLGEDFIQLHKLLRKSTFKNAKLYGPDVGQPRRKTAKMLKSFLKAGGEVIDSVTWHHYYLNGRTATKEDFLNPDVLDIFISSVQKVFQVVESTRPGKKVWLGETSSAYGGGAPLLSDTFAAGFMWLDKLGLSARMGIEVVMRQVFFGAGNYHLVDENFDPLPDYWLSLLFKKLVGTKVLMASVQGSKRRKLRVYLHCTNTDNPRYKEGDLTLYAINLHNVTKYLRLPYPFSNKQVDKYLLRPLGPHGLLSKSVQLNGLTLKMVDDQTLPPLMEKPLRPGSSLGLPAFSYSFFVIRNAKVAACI
T1 sequence (Q9Y251 36-109 limits assumed): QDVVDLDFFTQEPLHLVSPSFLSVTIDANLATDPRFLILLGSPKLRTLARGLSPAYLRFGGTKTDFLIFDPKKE
Nature of the assay: AGA*IA assay: heparanase-catalyzed fondaparinux cleavage, colorimetric (WST-1). It counts as biochemical. The procedure:
All compounds were tested in a simple, accurate and robust microplate assay based on the cleavage of the synthetic heparin fragment, the pentasaccharide Fondaparinux (AGA*IA). This assay was originally developed by Hammond and coworkers [Hammond E, Li CP, Ferro V. Development of a colorimetric assay for heparanase activity suitable for kinetic analysis and inhibitor screening. […] Fondaparinux is cleaved by heparanase to generate a reducing disaccharide, which can be quantitatively measured via a colorimetric or a fluorescence assay, the last by the fluorescent sensor polymer-H [Schiemann S, Lühn S, Alban S. Development of both colorimetric and fluorescence heparinase activity assays using fondaparinux as substrate.
The assay measures the appearance of the disaccharide product of heparanase-catalyzed fondaparinux cleavage colorimetrically using the tetrazolium salt WST-1. Assay was essentially performed as described with minor modifications. Briefly, NUNC ELISA 96-well plates were pre-treated with a solution of 4% BSA (bovin serum albumin) in phosphate-buffered saline containing 0.05% Tween 20 (PBST), for 2 h at 37°C, then washed three times with PBST, dried by tapping on paper towel and stored at -20°C. Before use, once again, the plates were washed with PBST.
Then, the absorbance at 560 nm was measured through a microplate reader (Victor 3, Perkin Elmer).
Finally, the measurements were corrected by subtracting both the reagent background and the inner absorbance value of test compound.
A general note: Formazan colour is commonly taken as a measure of viable cells.

The test system of assay [1] is U2OS (human osteosarcoma). The experiment in a line: SRB Cell Cytotoxicity Assay. It counts as cell-based. Conditions: treated for 72h, read-out: Concentration of test compounds at which the cell growth is inhibited by 50 % U2OS. An excerpt: (§1) SRB Cell Cytotoxicity Assay is an assay based upon the quantitative staining of cellular proteins by sulforhodamine B (SRB). This assay can be used for high-throughput drug screening (Vichai & Kirkitara, Nature Protocol. 2006, 1, 112). Sulforhodamine B is an anionic aminoxanthene dye that forms an electrostatic complex with the basic amino acid residues of proteins under moderately acid conditions, which provides a sensitive linear response.
(§2) To assess a putative antiproliferative activity of the selected compounds, HT1080 (human fibrosarcoma), U87MG (human glioblastoma astrocytoma) and U2OS (human osteosarcoma) cell lines were treated for 72h, in triplicate, with increasing concentrations of heparanase inhibitors. Inhibition of cell proliferation was then measured by the classical colorimetric SRB Cell Cytotoxicity assay. Absorbance was measured by spectrophotometer at a wavelength of 510 nm and cell proliferation was determined as percent with respect to control cells (cells treated with the vehicle alone). EC50 values were then determined by GraphPad Prism.

Assay [2] deals with HT1080 (human fibrosarcoma). The experiment in a line: SRB Cell Cytotoxicity Assay. The class given is cell-based. The settings on record: HT-1080, HT1080, treated for 72h, read-out: Concentration of test compounds at which the cell growth is inhibited by 50 % HT1080.
Description: as §1, §2

The subject of assay [3] is U87MG (human glioblastoma astrocytoma). The experiment in a line: SRB Cell Cytotoxicity Assay. It counts as cell-based. The settings on record: U-87 MG, treated for 72h, read-out: Concentration of test compounds at which the cell growth is inhibited by 50 % U87MG.
Description: as §1, §2

Where [4] appears, read: 2.5 nM heparanase, 100 µM fondaparinux, pH 5.0, 3 h at 37°C, class symbols, read-out: AGAIA assay (IC50).

Read-outs that look alike come from different tables or passages of the source.

Usually IC50 stands for the point on the concentration scale where inhibition reaches its midpoint. In the case of `O=C(Nc1cccc(-c2nc3ccccc3s2)c1)c1ccc(Oc2ccc(C(=O)Nc3cccc(-c4nc5ccccc5s4)c3)cc2)cc1` [SST0802, N-[3-(1,3-benzothiazol-2-yl)phenyl]-4-[4-[[3-(1,3-benzothiazol-2-yl)phenyl]carbamoyl]phenoxy]benzamide], at heparanase (setting [4]), the IC50 fell in the range of 1000 to 10000 nM.
Still for that read-out and setting: the value for `Nc1ccc2cc(S(=O)(=O)O)cc(O)c2c1N=Nc1ccc(NC(=O)Nc2ccc(N=Nc3c(N)ccc4cc(S(=O)(=O)O)cc(O)c34)c(S(=O)(=O)O)c2)cc1S(=O)(=O)O` [SST0753] was 1000 to 10000 nM.
In the case of `O=C(O)c1ccc(NC(=O)c2ccc(Oc3ccc(C(=O)Nc4ccc(C(=O)O)cc4)cc3)cc2)cc1` [SST0809, 4,4'-[oxybis(benzene-4,1-diylcarbonylimino)]dibenzoic acid], the IC50 at heparanase (setting [4]) was in the range of 1000 to 10000 nM.
Still for that read-out and setting: in the case of `O=C(O)c1ccc2c(c1)C(=O)N(c1ccc(Oc3ccc(Oc4ccc(N5C(=O)c6ccc(C(=O)O)cc6C5=O)cc4)cc3)cc1)C2=O` [SST0813] it was 1000 to 10000 nM.
On the same count and under the same terms, the value for `O=C(O)c1ccc(N2C(=O)c3ccc(Oc4cccc(Oc5ccc6c(c5)C(=O)N(c5ccc(C(=O)O)cc5)C6=O)c4)cc3C2=O)cc1` [SST0860, Benzoic acid, 4,4'-[1,3-phenylenebis[oxy(1,3-dihydro-1,3-dioxo-2H-isoindole-5,2-diyl)]]bis-] was 1000 to 10000 nM; that for `O=C(O)c1ccc2c(c1)C(=O)N(c1cccc(Oc3cccc(Oc4cccc(N5C(=O)c6ccc(C(=O)O)cc6C5=O)c4)c3)c1)C2=O` [SST0857] was 1000 to 10000 nM.
For `O=C(O)c1cc(NC(=O)c2ccc(Oc3ccc(C(=O)Nc4cc(C(=O)O)cc(C(=O)O)c4)cc3)cc2)cc(C(=O)O)c1` [SST0808, 5-[[4-[4-[(3,5-dicarboxyphenyl)carbamoyl]phenoxy]benzoyl]amino]benzene-1,3-dicarboxylic acid], at heparanase (setting [4]), the IC50 was 1000 to 10000 nM.
As for `O=C(Nc1ccc(O)cc1C(=O)O)c1ccc(S(=O)(=O)c2ccc(C(=O)Nc3ccc(O)cc3C(=O)O)cc2)cc1` [SST0817], the IC50 against heparanase was in the range of 500 to 990 nM.
In the case of `O=C(Nc1csc(-c2ccc(Oc3ccc(-c4nc(NC(=O)c5ccc(C(=O)c6ccccc6)cc5)cs4)cc3)cc2)n1)c1ccc(C(=O)c2ccccc2)cc1` [SST0804], the IC50 on heparanase (setting [4]) is 1000 to 10000 nM.
The same measure, in the same setting: in the case of `O=C(O)c1ccc(Oc2ccc3c(c2)C(=O)N(c2ccc(Oc4ccc(N5C(=O)c6ccc(Oc7ccc(C(=O)O)cc7)cc6C5=O)cc4)cc2)C3=O)cc1` [SST0807, 4-[2-[4-[4-[5-(4-carboxyphenoxy)-1,3-dioxoisoindol-2-yl]phenoxy]phenyl]-1,3-dioxoisoindol-5-yl]oxybenzoic acid] it was 1000 to 10000 nM.
With `O=C(Nc1ccc2c(O)c(N=Nc3ccc(N=Nc4ccc(S(=O)(=O)O)cc4)cc3S(=O)(=O)O)c(S(=O)(=O)O)cc2c1)Nc1ccc2c(O)c(N=Nc3ccc(N=Nc4ccc(S(=O)(=O)O)cc4)cc3S(=O)(=O)O)c(S(=O)(=O)O)cc2c1` [SST0595], the IC50 at heparanase (read-out: AGAIA assay (IC50), 2.5 nM heparanase, 100 µM fondaparinux, pH 5.0, 3 h at 37°C, class symbols) was 500 to 990 nM. The EC50 in assay [1], in assay [2] and in assay [3] was more than 10000 nM each time.
In the case of `O=C(O)c1ccccc1N1C(=O)c2ccc(Oc3ccc(Oc4ccc5c(c4)C(=O)N(c4ccccc4C(=O)O)C5=O)cc3)cc2C1=O` [SST0855, Benzoic acid, 2,2'-[1,4-phenylenebis[oxy(1,3-dihydro-1,3-dioxo-2H-isoindole-5,2-diyl)]]bis-], the IC50 at heparanase (setting [4]) lay within 1000 to 10000 nM.
Still for that read-out and setting: the value for `O=C(Nc1ccc(Br)cc1C(=O)O)c1ccc(Oc2ccc(C(=O)Nc3ccc(Br)cc3C(=O)O)cc2)cc1` [SST0604, 5-bromo-2-[[4-[4-[(4-bromo-2-carboxyphenyl)carbamoyl]phenoxy]benzoyl]amino]benzoic acid] was 1000 to 10000 nM.
As to `O=C(Nc1ccccc1C(=O)O)c1ccc2c(c1)C(=O)N(c1ccc(S(=O)(=O)c3ccc(N4C(=O)c5ccc(C(=O)Nc6ccccc6C(=O)O)cc5C4=O)cc3)cc1)C2=O` [SST0602, 2-[[2-[4-[4-[5-[(2-carboxyphenyl)carbamoyl]-1,3-dioxoisoindol-2-yl]phenyl]sulfonylphenyl]-1,3-dioxoisoindole-5-carbonyl]amino]benzoic acid], the IC50 on heparanase (setting [4]) fell in the range of 1000 to 10000 nM.
Same read-out and setting: the value for `O=C(Nc1cccc(C(=O)c2ccccc2)c1)c1ccc(Oc2ccc(C(=O)Nc3cccc(C(=O)c4ccccc4)c3)cc2)cc1` [SST0801] was 1000 to 10000 nM; that for `O=C(Nc1ccccc1C(=O)O)c1ccc2c(c1)C(=O)N(c1ccc(Oc3ccc(N4C(=O)c5ccc(C(=O)Nc6ccccc6C(=O)O)cc5C4=O)cc3)cc1)C2=O` [SST0600, Benzoic acid, 2,2'-[oxybis[4,1-phenylene(1,3-dihydro-1,3-dioxo-2H-isoindole-2,5-diyl)carbonylimino]]bis-] was 1000 to 10000 nM; that for `O=C(Nc1cccc(Oc2ccc(S(=O)(=O)c3ccc(Oc4cccc(NC(=O)c5ccc(F)cc5)c4)cc3)cc2)c1)c1ccc(F)cc1` [SST0812] was 1000 to 10000 nM.
Turning to `CC(C)(c1ccc(Oc2ccc3c(c2)C(=O)N(c2ccc(C(=O)O)cc2)C3=O)cc1)c1ccc(Oc2ccc3c(c2)C(=O)N(c2ccc(C(=O)O)cc2)C3=O)cc1` [SST0852, 4-[5-[4-[2-[4-[2-(4-carboxyphenyl)-1,3-dioxoisoindol-5-yl]oxyphenyl]propan-2-yl]phenoxy]-1,3-dioxoisoindol-2-yl]benzoic acid], on heparanase (setting [4]), the IC50 lay in the range of 1000 to 10000 nM.
On the same count and under the same terms, in the case of `O=C(Nc1ccc(Oc2ccc(NC(=O)c3ccc4c(c3)C(=O)N(c3nccs3)C4=O)cc2)cc1)c1ccc2c(c1)C(=O)N(c1nccs1)C2=O` [SST0816] it was 1000 to 10000 nM.
As to `O=C(O)c1ccc(Oc2cccc(N3C(=O)c4ccc(Oc5ccc6c(c5)C(=O)N(c5cccc(Oc7ccc(C(=O)O)c(C(=O)O)c7)c5)C6=O)cc4C3=O)c2)cc1C(=O)O` [SST0853, 4-[3-[5-[2-[3-(3,4-dicarboxyphenoxy)phenyl]-1,3-dioxoisoindol-5-yl]oxy-1,3-dioxoisoindol-2-yl]phenoxy]phthalic acid], on heparanase (setting [4]), the IC50 was 500 to 990 nM. The EC50 in assay [1], in assay [2] and in assay [3] was more than 2500 nM each time.
On to `CC(C)(c1ccc(Oc2ccc3c(c2)C(=O)N(c2cccc(C(=O)O)c2)C3=O)cc1)c1ccc(Oc2ccc3c(c2)C(=O)N(c2cccc(C(=O)O)c2)C3=O)cc1` [SST0851, 3-[5-[4-[2-[4-[2-(3-carboxyphenyl)-1,3-dioxoisoindol-5-yl]oxyphenyl]propan-2-yl]phenoxy]-1,3-dioxoisoindol-2-yl]benzoic acid], for which the IC50 on heparanase (setting [4]) was in the range of 500 to 990 nM. The EC50 in assay [1], in assay [2] and in assay [3] was more than 2500 nM in each case.
`O=C(Nc1nc(-c2ccc(F)cc2)cs1)c1ccc(Oc2ccc(C(=O)Nc3nc(-c4ccc(F)cc4)cs3)cc2)cc1` [SST0815]: the IC50 at heparanase (setting [4]) fell in the range of 1000 to 10000 nM.
Molecule `O=C(Nc1ccc(-c2nc3ccccc3o2)cc1)c1ccc(Oc2ccc(C(=O)Nc3ccc(-c4nc5ccccc5o4)cc3)cc2)cc1` [SST0805] yielded a 50% inhibitory concentration (IC50) at heparanase of 1000 to 10000 nM.
Consider `O=C(Nc1ccc(NC(=O)c2ccc(N=Nc3ccc(O)cc3O)cc2)c(S(=O)(=O)O)c1)Nc1ccc(NC(=O)c2ccc(N=Nc3ccc(O)cc3O)cc2)c(S(=O)(=O)O)c1` [SST0610], for which the half-maximal inhibitory concentration (IC50) at heparanase (setting [4]) lay in the range of 1000 to 10000 nM.
Same read-out and setting: in the case of `O=C(Nc1ccc(O)cc1C(=O)O)c1ccc(Oc2ccc(C(=O)Nc3ccc(O)cc3C(=O)O)cc2)cc1` [SST0810] it was 1000 to 10000 nM.
On the same count and under the same terms, the value for `O=C(Nc1nc(-c2ccc3ccccc3c2)cs1)c1ccc(Oc2ccc(C(=O)Nc3nc(-c4ccc5ccccc5c4)cs3)cc2)cc1` [SST0803] was 1000 to 10000 nM.
